Source: the NIST ThermoML archive (doi:10.1021/je700139p)
± gives the expanded uncertainty stated by the source.

Assay: activity coefficient (dimensionless); of the first substance listed, at infinite dilution; xn = mol fraction of the nth substance listed
Conditions: 101 kPa, Liquid, Chromatography, x1 = 0

activity coefficient (333.15 K) | activity coefficient (343.15 K) | activity coefficient (353.15 K) | activity coefficient (363.15 K) | activity coefficient (373.15 K) | Structure (SMILES)
2.32 ± 0.16 | 2.3 ± 0.16 | 2.28 ± 0.15 | 2.26 ± 0.15 | 2.25 ± 0.15 | c1ccccc1 [benzene] + O=S1(=O)CCCC1
4.82 ± 0.33 | 4.65 ± 0.32 | 4.48 ± 0.3 | 4.35 ± 0.3 | 4.26 ± 0.29 | CCc1ccccc1 [ethylbenzene] + O=S1(=O)CCCC1
60.3 ± 4.1 | 53.1 ± 3.6 | 47.6 ± 3.3 | 41.2 ± 2.8 | 38.5 ± 2.6 | CCCCCCC [heptane] + O=S1(=O)CCCC1
80.7 ± 5.5 | 70.5 ± 4.8 | 61.7 ± 4.2 | 54.3 ± 3.7 | 48.6 ± 3.3 | CCCCCCCC [octane] + O=S1(=O)CCCC1
147 ± 10 | 126 ± 8.6 | 107 ± 7.3 | 92.2 ± 6.3 | 79.8 ± 5.5 | CCCCCCCCCC [decane] + O=S1(=O)CCCC1

Continued, compound first:

Structure (SMILES) | activity coefficient (333.15 K) | activity coefficient (343.15 K) | activity coefficient (353.15 K) | activity coefficient (363.15 K) | activity coefficient (373.15 K)
Cc1ccccc1 [toluene] + O=S1(=O)CCCC1 | 3.46 ± 0.23 | 3.38 ± 0.23 | 3.29 ± 0.22 | 3.23 ± 0.22 | 3.2 ± 0.22
Cc1ccc(C)cc1 [1,4-dimethylbenzene] + O=S1(=O)CCCC1 | 5.51 ± 0.38 | 5.25 ± 0.36 | 5.11 ± 0.35 | 4.88 ± 0.33 | 4.76 ± 0.32
Cc1ccccc1C [1,2-dimethylbenzene] + O=S1(=O)CCCC1 | 4.57 ± 0.31 | 4.39 ± 0.3 | 4.28 ± 0.29 | 4.17 ± 0.28 | 4.04 ± 0.28
Cc1cccc(C)c1 [1,3-dimethylbenzene] + O=S1(=O)CCCC1 | 5.35 ± 0.36 | 5.13 ± 0.35 | 4.98 ± 0.34 | 4.77 ± 0.33 | 4.65 ± 0.32
